Laboratory results taken from patent publication US20220117940A1, “COMPOSITION FOR INCREASING PREGNANCY RATE OF RUMINANTS AND PREPARATION METHOD AND APPLICATION THEREOF” (CHINA AGRICULTURAL UNIVERSITY, priority 2020, published 2022).
Marks after values point to notes of the source that are not given here.

Tests used:
[1] = Serum MT concentration after melatonin injection in cows exposed to ovsynch TAI (liquid chromatography); details: melatonin injected with last dose of GnRH, PG-PG-GnRH-PG-GnRH ovsynch TAI, mean ± standard error, P<0.05 vs no melatonin
[2] = test system: mouse; details: 5 mg/kg injected before the MT1 receptor peak; cited from earlier work
[3] = test system: cows exposed to TAI or natural ovulation; test: Pregnancy and calving rates of first insemination in cows (TAI or natural ovulation) with melatonin injection; assay type: in vivo, Holstein cows
Description: (§1) 50 to 60 days after the insemination, the pregnancy tests were performed on the Holstein cows by means of rectal examination. Alternatively, 32 days after the insemination, the pregnancy rates were calculated by means of B-scan ultrasonography and pregnancy detection kits.

[4] = test system: Holstein cows; test: Serum reproductive hormone levels after melatonin injection in cows exposed to ovsynch TAI; assay type: in vivo; details: mean ± standard error; for P (progesterone) levels: pregnant cows, Day 30 of pregnancy; for P (progesterone) levels / E2 (estradiol) levels / LH levels: P<0.05; for E2 (estradiol) levels / LH levels / FSH levels: serum; for E2 (estradiol) levels / LH levels: 8 hours after injection of GnRH plus melatonin; for FSH levels: after melatonin with last dose of GnRH, no significant change (P>0.05)
Source text: The process is substantially same as that of Example 2, except that blood was collected at each stage from ovsynch TAI to pregnancy tests, in order to determine the changes in relevant reproductive hormones in ovulating cows.

[5] = test system: Holstein cows exposed to natural ovulation; test: Pregnancy and calving rates of cows exposed to natural ovulation with melatonin injection; assay type: in vivo
Description: as §1

[6] = test system: Holstein cows exposed to TAI; test: Pregnancy and calving rates of cows exposed to ovsynch TAI with melatonin injection; assay type: in vivo
Description: A melatonin injection of 2-3 mL was injected in combination with the injection of GnRH of ovsynch TAI in cows (as shown in FIG. 1), with B-scan pregnancy tests on Days 32-35, or pregnancy tests by recto-vaginal technique on Day 60. The pregnancy rates were calculated.
2 mL of the injection prepared in Example 1 was administrated together with the last injection of GnRH to multipara Holstein cows (1-3 pregnancies) exposed to postpartum ovsynch TAI. In this process, a randomized administration approach was used, for example administer to every other cow in which the first cow was administrated, the second was not administrated, the third was administrated, and so on.
as §1

[7] = first insemination, TAI plus natural ovulation, of 162

## COc1ccc2[nH]cc(CCNC(C)=O)c2c1 [Melatonin, N-acetyl-5-methoxytryptamine]
[1]
  MT levels in blood (serum): 4.35±0.53
[1]; listed as MT
  MT levels in blood (serum): 4.3465±0.5286
[2]
  Expression of corpus luteum marker genes Akr1c18 and Cyp11a1: upregulate
  Level of progesterone in mouse serum: significantly increase
[3]; TAI or natural ovulation, 11.85/26.42
  Increase of pregnancy rate relative to control: more than 44.85%
[3]; TAI plus natural ovulation, P<0.05 vs control
  Pregnancy rate of first insemination: 38.27%^a
[3]; first insemination, TAI plus natural ovulation, P<0.05 vs control
  Calving rate: 27.16%^a
[3]; [7]
  Number of calves: 44
  Number of pregnant cows: 62
[4]
  P (progesterone) levels: 0.18±0.02
  E2 (estradiol) levels: 11.68±0.88
  LH levels: 5.02±0.23
  FSH levels: 2.48±0.25
[4]; listed as MT
  P (progesterone) levels: 0.1825±0.0235
  E2 (estradiol) levels: 11.678±0.8834
  LH levels: 5.022±0.2324
  FSH levels: 2.482±0.2463
[5]; 14.60/26.25
  Increase of pregnancy rate relative to control: more than 55.62%
[5]; P<0.05 vs control
  Calving rate: 29.58%^A
  Pregnancy rate: 40.85%^A
[5]; of 71 cows
  Number of calves: 21
  Number of pregnant cows: 29
[6]; TAI, 2 mL of 15 mg/mL injection with last GnRH, P<0.05 vs control
  Pregnancy rate: 36.26%^a
[6]; TAI, 2 mL of 15 mg/mL injection with last GnRH, of 91 cows
  Number of pregnant cows: 33
[6]; TAI, P<0.05 vs control
  Calving rate: 25.27%^a
[6]; TAI, of 91 cows
  Number of calves: 23
[6]; multipara cows, ovsynch TAI, 9.68/26.58
  Increase of pregnancy rate relative to control: more than 36.42%
[6]; preparation comprising melatonin of 15 mg/mL, cows exposed to ovsynch TAI
  Increase of pregnancy rate: 11%
